In US9056891B2, “Synthetic peptide inhibitors of Wnt pathway” (The United States of America, as represented by the …, priority 2010, dated 2015):
Where a SMILES comes first, the peptide text is derived from it. [ ]: non-standard residue; d: D form. The star is where a group is joined. Palmitoyl = CCCCCCCCCCCCCCCC(=O)*

How the values were obtained:
[1] = tested on: 4T1 mouse breast cancer cells; assay: Colony formation by 4T1 cells; type: cell-based; settings: 5 μM and 10 μM
Description: The activity of compounds in inhibiting colony formation by 4T1 cells was also investigated, which test provides a prediction for compound's potency in vivo.

[2] = tested on: RKO, HT-29, HCT-116, SW-480, and SW-620 cells; assay: Cell viability of colon cancer cells (FIGS. 2A-C); type: cell-based; settings: increasing concentrations, HT-29, HCT-116, SW-480, SW-620
Procedure: The concentration (μM) of the peptide inhibitor is indicated on the x-axis and the percent viability is indicated on the y-axis.
A similar experiment was performed using RKO, HT-29, HCT-116, SW-480, and SW-620 cells. Colorectal adenocarcinoma SW-480 and SW-620 cells have truncated APC protein, which—as discussed above—is a common cause of canonical Wnt pathway activation in colon malignancies.

HCT-116 cells = type: cell-based, human; settings: 48 h
Procedure: (§1) HeLa, U3A, RKO, HCT-116, and HT-29 cells were exposed to the CT-HC-1, CT-HC-3, CT-HC-5, and CT-HC-8 inhibitors of Example 1 for 48 hours in medium containing 1% bovine fetal serum, and the resulting cell number was evaluated using a MTT assay. Each of these cell lines is relevant to the evaluation of Wnt signaling. Cervical carcinoma HeLa cells overexpress β-catenin (see, e.g., Lee et al., Int. J. Cancer, 124(2): 287-297 (2009); and Lee et al., Gynecol. Oncol., 109(2): 270-274 (2008)). β-catenin is activated in colon carcinoma RKO due to mutation in CDX2 (see, e.g., Dang et al., Oncogene, 20(35): 4884-4890 (2001)). Colon adenocarcinoma HCT116 has elevated mutated β-catenin; however, it was found in the past to be resistant to down regulation of β-catenin (see, e.g., Chan et al., Proc. Natl. Acad. Sci. USA, 99(12): 8265-8270 (2002); and Handeli et al., Mol. Cancer Ther., 7(3): 521-529 (2008)). Colon carcinoma HT-29 has truncated adenomatous polyposis coli (APC) protein, which is a common cause of canonical Wnt pathway activation in colon malignancies. Fibrosarcoma U3A cells are STAT1-negative and have uncharacterized status of Wnt pathway.
(§2) The ability of CT-HC-1 to inhibit growth and to kill cancer cells at different concentrations was further investigated in HeLa, U3A, RKO, HCT-116, and HT-29 cells. The cells were stained with Promega Non-Radioactive Cell Proliferation Assay Kit (MTT) according to the manufacture's protocol. The absorbance of the wells was determined at 544 nm by a FLUOstar/POLARstar Galaxy (BMG Lab Technologies GmbH) Microplate Reader. The assays were performed on control (C) and test (T) cells. Untreated cells were used as a control. Cellular responses were calculated from the data using the following formula: 100×[(T−T0)/(C−T0)] for T>T0 and 100×[(T−T0)/T0] for T<T0. T0 corresponds to cell density at the time of drug addition.

SW480 cells = assay: Toxicity (growth inhibition) for SW-480 cells; type: cell-based, human; set-up: unit not given here
Procedure: (§3) Further optimization and testing of inhibitors was performed using this cell line. Table 5 presents toxicity data for select inhibitors for 4T1 cells and human colon cancer cell line SW-480, wherein GI50 is the concentration providing 50% growth inhibition and TGI is the total growth inhibition.

GFP-tagged beta-catenin = target: T1, GFP-tagged beta-catenin (Homo sapiens, UniProt P35222); assay: Microscale thermophoresis of GFP-tagged beta-catenin; type: binding; settings: HEK293 lysate, membrane-mimicking bicelles, Hill fit
T1 construct: made in house; host or cells: HEK293 cells (unpurified lysate)
T1 sequence (P35222 1-781): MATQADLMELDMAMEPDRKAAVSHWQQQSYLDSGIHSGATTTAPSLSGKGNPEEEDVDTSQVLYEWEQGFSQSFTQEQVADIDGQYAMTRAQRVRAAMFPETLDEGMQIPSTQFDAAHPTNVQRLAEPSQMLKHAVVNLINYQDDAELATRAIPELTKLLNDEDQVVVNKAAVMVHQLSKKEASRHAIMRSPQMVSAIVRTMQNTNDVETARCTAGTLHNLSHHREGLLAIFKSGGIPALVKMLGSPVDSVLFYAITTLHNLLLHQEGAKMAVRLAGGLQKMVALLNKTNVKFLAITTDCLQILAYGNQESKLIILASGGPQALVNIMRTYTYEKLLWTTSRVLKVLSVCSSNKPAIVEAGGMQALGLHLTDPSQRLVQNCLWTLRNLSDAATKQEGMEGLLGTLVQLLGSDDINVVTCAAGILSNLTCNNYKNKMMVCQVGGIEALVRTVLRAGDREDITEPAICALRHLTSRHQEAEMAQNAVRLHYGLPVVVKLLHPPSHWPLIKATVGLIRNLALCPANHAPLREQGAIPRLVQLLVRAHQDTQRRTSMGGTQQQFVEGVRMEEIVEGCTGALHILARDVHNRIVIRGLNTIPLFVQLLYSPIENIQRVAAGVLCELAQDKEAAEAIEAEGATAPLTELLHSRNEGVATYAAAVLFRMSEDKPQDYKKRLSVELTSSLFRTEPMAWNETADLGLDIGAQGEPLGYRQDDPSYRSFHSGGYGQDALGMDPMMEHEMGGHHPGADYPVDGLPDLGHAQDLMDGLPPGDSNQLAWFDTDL
Procedure: Briefly, beta-catenin was overexpressed as a GFP-fusion in HEK293 cells. The cells were lysed with ultrasound, and the resulting lysate was mixed with increasing concentrations of CT-HC-5 in the presence of membrane-mimicking bicelles. Thermophoretic mobility was measured in standard capillaries on Monolith NT.115 (NanoTemper Technologies).

4T1 cells = assay: Toxicity (growth inhibition) for 4T1 cells; type: cell-based, mouse
Procedure: To identify a mouse model for preclinical development of compounds, mouse cell lines were tested for (1) growth inhibition by the compounds and (2) the levels of constitutive Wnt signaling TCF-reporter activity using transfection of cell with TCF/LEF-responsive firefly luciferase construct. The data further confirmed that sensitivity to compounds correlated well with the levels of canonical Wnt signaling.
Based on the data, mouse breast cancer cell line 4T1 was selected for in vivo testing.
as §3

U3A cells = type: cell-based; settings: 48 h
Procedure: as §1, §2

HT-29 cells = type: cell-based; settings: 48 h
Procedure: as §1, §2

RKO cells = type: cell-based; settings: 48 h
Procedure: as §1, §2

HeLa cells = type: cell-based; settings: 48 h
Procedure: as §1, §2

GI50 (HCT-116 cells): 2400 ± 400 nM
Kd (GFP-tagged beta-catenin): 2700 ± 200 nM
GI50 (HT-29 cells): 2000 ± 100 nM
GI50 (HeLa cells): 1200 ± 90 nM
SMILES: CCCCCCCCCCCCCCCC(=O)N[C@@H](C(=O)N[C@H](CCCNC(=N)N)C(=O)N[C@H](Cc1ccccc1)C(=O)N[C@H](CC(C)C)C(=O)N[C@H](CO)C(=O)N[C@H](CO)C(=O)N[C@@H](C(=O)N[C@H](CC(C)C)C(=O)N[C@H](CCC(=O)O)C(=O)N[C@@H](C(=O)N[C@H](CO)C(=O)N[C@H](CC(C)C)C(=O)N[C@H](CCCNC(=N)N)C(=O)N[C@H](CCCCN)C(=O)N[C@H](CCCCN)C(N)=O)C(C)C)[C@H](C)O)[C@H](C)O [CT-HC-5, Pal-TRFLSSTLEVSLRKK-NH2] (Palmitoyl-[dT][dR][dF][dL][dS][dS][dT][dL][dE][dV][dS][dL][dR][dK][dK]-NH2)
colony formation by 4T1 cells [1]: inhibited colony formation
cell viability [2]: suppression of cell viability
SW480 cells TGI (total growth inhibition) (SW480 cells): 2.5
4T1 cells TGI (total growth inhibition) (4T1 cells): > 5000 nM
GI50 (U3A cells): 1500 ± 100 nM
GI50 (RKO cells): 1150 ± 50 nM
